# Results taken from BindingDB's records for PubMed 34752953 (Zhengzhou University, 2022).
# Biological target: Indoleamine 2,3-dioxygenase 1 (Homo sapiens, UniProt P14902)
# Assay: Inhibition of IDO1 (unknown origin)
# Indoleamine 2,3-dioxygenase 1, sequence (P14902 whole entry): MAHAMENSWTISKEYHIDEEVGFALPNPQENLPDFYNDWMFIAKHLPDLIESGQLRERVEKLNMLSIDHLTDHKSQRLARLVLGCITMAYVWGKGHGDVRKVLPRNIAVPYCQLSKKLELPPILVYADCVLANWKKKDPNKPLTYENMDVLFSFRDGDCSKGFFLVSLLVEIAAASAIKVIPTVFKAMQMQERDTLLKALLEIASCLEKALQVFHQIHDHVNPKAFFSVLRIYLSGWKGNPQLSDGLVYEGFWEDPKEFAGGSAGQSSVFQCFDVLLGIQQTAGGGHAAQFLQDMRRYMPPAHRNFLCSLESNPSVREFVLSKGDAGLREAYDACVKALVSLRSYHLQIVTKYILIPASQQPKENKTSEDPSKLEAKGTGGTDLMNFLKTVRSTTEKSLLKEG
structure (smiles),measurement,value
O[C@@H](C[C@H]1c2sccc2-c2cncn21)C1CCC(F)(F)CC1,IC50,11 nM
